Results reported in patent US12642270B2, “Substituted thiophene carboxamides, thiophene carboxylic acids and derivatives thereof” (Bayer Aktiengesellschaft, priority 2019, dated 2026).

Assay: Log P by HPLC on reversed phase columns (EEC directive 79/831 Annex V.A8)
Assay type: physicochemical
Conditions: method [a]: LC-UV, acidic range, 0.1% formic acid in water and acetonitrile
Method in brief: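 Values come from retention times calibrated against alkan-2-ones (3–16 carbons) by linear interpolation, using reversed-phase LC-UV per EEC directive 79/831 Annex V.A8. Acetonitrile gradient 10–95% with 0.1% formic acid [a], 0.001 M ammonium acetate [b] or 0.1% phosphoric acid [c]; several values within one method separated by "+".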

Row | LogP | SMILES
1 | 2.59^[a] | O=C(N[C@H]1CCOC1=O)c1sc(Cl)c(Cl)c1Br [I.0931]
2 | 2.62^[a] | O=C(N[C@H]1CCOC1=O)c1sc(Br)c(Br)c1Cl [I.0932]
3 | 2.29^[a] | O=C(N[C@H]1CCCNC1=O)c1sc(Cl)c(Br)c1Cl [I.0939]
4 | 2.30^[a] | O=C(N[C@H]1CCCNC1=O)c1sc(Cl)c(Cl)c1Br [I.0944]
5 | 2.99^[a] | O=C(NC1CCCCNC1=O)c1sc(Cl)c(Cl)c1Br (stereo not drawn) [I.0945]
6 | 2.56^[a] | O=C(NC1CCOC1=O)c1sc(Cl)c(Br)c1Cl (stereo not drawn) [I.0949]
7 | 2.05^[a] | O=C(N[C@H]1CCCNC1=O)c1sc(Br)c(Br)c1F [I.0950]
8 | 2.68^[a] | O=C(NC1CCCCNC1=O)c1sc(Br)c(Br)c1F (stereo not drawn) [I.0951]
9 | 2.31^[a] | O=C(N[C@H]1CCCNC1=O)c1sc(Br)c(Br)c1Cl [I.0956]
10 | 2.99^[a] | O=C(NC1CCCCNC1=O)c1sc(Br)c(Br)c1Cl (stereo not drawn) [I.0957]
11 | 3.25^[a] | O=C(NC1CCSC1=O)c1sc(Br)c(Br)c1Cl (stereo not drawn) [I.1005]
12 | 3.25^[a] | O=C(NC1CCSC1=O)c1sc(Cl)c(Cl)c1Br (stereo not drawn) [I.1006]
13 | 4.78^[a] | N#CC1(NC(=O)c2sc(Br)c(Br)c2F)CCC(c2ccccc2)CC1 (stereo not drawn) [I.1009]
14 | 3.24^[a] | O=C(N[C@H]1CCSC1=O)c1sc(Cl)c(Cl)c1Br [I.1011]
15 | 6.13^[a] | N#CC1(NC(=O)c2sc(Br)c(Br)c2F)CCC(C2CCCCC2)CC1 (stereo not drawn) [I.1012]
16 | 2.58^[a] | O=C(NC1CCOC1=O)c1sc(Br)c(Br)c1Cl (stereo not drawn) [I.1031]
17 | 1.92^[a] | Cc1c(C(=O)NC2CCOC2=O)sc(C#N)c1Br (stereo not drawn) [I.1034]
18 | 2.46^[a] | O=C(NC1CCOC1=O)c1sc(Br)c(Br)c1C(F)F (stereo not drawn) [I.1066]
19 | 1.66^[a] | N#Cc1c(Br)sc(C(=O)O)c1Cl [II.001]
20 | 1.59^[a] | N#Cc1c(Cl)sc(C(=O)O)c1Cl [II.002]
21 | 2.39^[a] | O=C(O)c1sc(Cl)c(Cl)c1C(F)F [II.003]
22 | 2.44^[a] | O=C(O)c1sc(Br)c(Br)c1C(F)(F)F [II.004]

Row | LogP | SMILES
23 | 2.14^[a] | O=C(O)c1sc(Cl)c(Br)c1F [II.005]
24 | 2.46^[a] | O=C(O)c1sc(Br)c(Br)c1C(F)F [II.006]
25 | 2.03^[a] | Cc1c(C(=O)O)sc(Br)c1C#N [II.007]
26 | 1.94^[a] | Cc1c(C(=O)O)sc(Cl)c1C#N [II.008]
27 | 2.18^[a] | O=C(O)c1sc(Br)c(Cl)c1F [II.009]
28 | 2.51^[a] | O=C(O)c1sc(Br)c(Cl)c1Cl [II.010]
29 | 2.57^[a] | O=C(O)c1sc(Cl)c(Br)c1Br [II.011]
30 | 2.44^[a] | O=C(O)c1sc(Cl)c(Br)c1Cl [II.012]
31 | 2.08^[a] | Cc1sc(C(=O)O)c(F)c1Br [II.013]
32 | 2.80^[a] | Cc1c(C(=O)O)sc(Cl)c1Br [II.014]
33 | 2.75^[a] | Cc1c(C(=O)O)sc(Br)c1Cl [II.015]
34 | 1.95^[a] | Cc1c(C(=O)O)sc(C#N)c1Cl [II.016]
35 | 2.86^[a] | Cc1c(C(=O)O)sc(I)c1Br [II.017]
36 | 2.92^[a] | Cc1c(C(=O)O)sc(Br)c1I [II.018]
37 | 4.08^[a] | COC(=O)c1sc(Br)c(Br)c1C(F)(F)F [II.019]
38 | 3.47^[a] | COC(=O)c1sc(Br)c(Cl)c1F [II.020]
39 | 2.82^[a] | COC(=O)c1sc(Cl)c(C#N)c1Cl [II.022]
40 | 3.77^[a] | COC(=O)c1sc(Cl)c(Cl)c1C(F)F [II.023]
41 | 4.77^[a] | Cc1sc(C(=O)OCC(C)C)c(F)c1Br [II.024]
42 | 3.47^[a] | COC(=O)c1sc(Cl)c(Br)c1F [II.025]
43 | 4.02^[a] | COC(=O)c1sc(Cl)c(Br)c1Br [II.026]
44 | 3.94^[a] | COC(=O)c1sc(Cl)c(Br)c1Cl [II.027]

Row | LogP | SMILES
45 | 3.06^[a] | COC(=O)c1sc(Br)c(C#N)c1C [II.029]
46 | 5.03^[a] | CCOC(=O)c1sc(I)c(Br)c1C [II.030]
47 | 5.03^[a] | CCOC(=O)c1sc(Br)c(I)c1C [II.031]
48 | 5.00^[a] | CCOC(=O)c1sc(Cl)c(Br)c1C [II.032]
49 | 1.33^[a] | N#Cc1sc(C(=O)O)cc1Cl [II.034]
50 | 1.94^[a] | O=C(O)c1cc(Br)c(F)s1 [II.035]
51 | 1.41^[a] | N#Cc1sc(C(=O)O)cc1Br [II.036]
52 | 1.89^[a] | O=C(O)c1cc(F)c(Cl)s1 [II.037]
53 | 2.16^[a] | Cc1cc(C(=O)O)sc1Cl [II.038]
54 | 1.02^[a] | O=C(O)c1cc(F)c(Br)s1 [II.039]
55 | 2.23^[a] | O=C(O)c1cc(Cl)c(Br)s1 [II.040]
56 | 1.44^[a] | N#Cc1cc(C(=O)O)sc1Cl [II.041]
57 | 2.28^[a] | O=C(O)c1cc(Br)c(Cl)s1 [II.043]
58 | 1.73^[a] | N#Cc1c(Br)sc(C(=O)O)c1Br [II.044]
59 | 2.44^[a] | COC(=O)c1cc(C#N)c(Cl)s1 [II.045]
60 | 3.29^[a] | COC(=O)c1cc(Cl)c(Br)s1 [II.047]
61 | 4.21^[a] | CCOC(=O)c1cc(Br)c(Cl)s1 [II.048]
62 | 3.04^[a] | COC(=O)c1cc(F)c(Br)s1 [II.049]
63 | 5.28^[a] | CC(C)COC(=O)c1cc(Cl)c(Br)s1 [II.050]
64 | 3.19^[a] | COC(=O)c1sc(C#N)c(Br)c1C [II.051]
65 | 2.63^[a] | COC(=O)c1cc(Br)c(C#N)s1 [II.052]
66 | 3.07^[a] | COC(=O)c1sc(C#N)c(Br)c1Br [II.054]

Row | LogP | SMILES
67 | 4.57^[a] | CCOC(=O)c1sc(I)c(Cl)c1Cl [II.056]
68 | 3.01^[a] | O=C(O)c1sc(I)c(Cl)c1Cl [II.057]
69 | 3.49^[a] | COC(=O)c1sc(C)c(Cl)c1Cl [II.058]
70 | 3.44^[a] | COC(=O)c1sc(F)c(Br)c1Cl [II.059]
71 | 5.28^[a] | CC(C)COC(=O)c1sc(Cl)c(Br)c1F [II.060]
72 | 1.66^[a] | N#Cc1sc(C(=O)O)c(Br)c1Br [II.061]
73 | 3.63^[a] | CCOC(=O)c1cc(Cl)c(F)s1 [II.062]
74 | 4.03^[a] | CCOC(=O)c1sc(C)c(Cl)c1Cl [II.063]
75 | 2.16^[a] | O=C(O)c1cc(Cl)c(F)s1 [II.064]
76 | 2.49^[a] | Cc1sc(C(=O)O)c(Cl)c1Cl [II.065]
77 | 4.02^[a] | CCOC(=O)c1sc(F)c(Br)c1Cl [II.066]
78 | 4.08^[a] | CCOC(=O)c1sc(Cl)c(Br)c1F [II.067]
79 | 3.50^[a] | CCOC(=O)c1sc(C#N)c(Cl)c1Cl [II.068]
80 | 3.26^[a] | COC(=O)c1sc(Br)c(Br)c1C#N [II.069]
81 | 2.41^[a] | O=C(O)c1sc(Br)c(Cl)c1Br [II.070]
82 | 4.01^[a] | COC(=O)c1sc(Br)c(Cl)c1Br [II.071]
83 | 3.10^[a] | CCOC(=O)c1cc(Cl)c(C#N)s1 [II.072]
84 | 4.59^[a] | CCOC(=O)c1sc(Cl)c(C)c1Cl [II.073]
85 | 2.76^[a] | Cc1c(Cl)sc(C(=O)O)c1Cl [II.074]
86 | 3.54^[a] | COC(=O)c1sc(Br)c(C(F)F)c1Br [II.075]
87 | 2.19^[a] | O=C(O)c1sc(F)c(Br)c1Cl [II.076]
88 | 2.99^[a] | COC(=O)c1sc(Cl)c(Br)c1C#N [II.077]

Row | LogP | SMILES
89 | 2.26^[a] | O=C(O)c1sc(Br)c(C(F)F)c1Br [II.078]
90 | 2.99^[a] | COC(=O)c1sc(C#N)c(Cl)c1Cl [II.079]
91 | 3.02^[a] | COC(=O)c1sc(C#N)c(Br)c1Cl [II.080]
92 | 2.46^[a] | O=C(O)c1cc(Br)c(C(F)(F)F)s1 [II.081]
93 | 4.40^[a] | CCOC(=O)c1cc(Br)c(C(F)(F)F)s1 [II.082]
94 | 1.70^[a] | N#Cc1c(C(=O)O)sc(Cl)c1Br [II.083]
95 | 3.15^[a] | COC(=O)c1sc(C)c(Br)c1F [II.084]
96 | 3.56^[a] | COC(=O)c1sc(F)c(Br)c1Br [II.086]
97 | 1.55^[a] | N#Cc1sc(C(=O)O)c(Cl)c1Br [II.087]
98 | 1.51^[a] | N#Cc1sc(C(=O)O)c(Cl)c1Cl [II.088]
99 | 4.62^[a] | CCOC(=O)c1sc(Cl)c(Br)c1Cl [II.089]
100 | 3.01^[a] | CCOC(=O)c1cc(C#N)c(Cl)s1 [II.090]
101 | 3.44^[a] | CCOC(=O)c1sc(Br)c(C#N)c1Cl [II.091]
102 | 3.56^[a] | CCOC(=O)c1sc(C#N)c(Cl)c1Br [II.092]
103 | 3.46^[a] | CCOC(=O)c1sc(Cl)c(C#N)c1Br [II.093]
104 | 2.26^[a] | O=C(O)c1sc(F)c(Br)c1Br [II.094]
105 | 2.92^[a] | COC(=O)c1sc(Cl)c(C#N)c1Br [II.095]
106 | 3.04^[a] | COC(=O)c1sc(C#N)c(Cl)c1Br [II.096]

Row | SMILES | LogP
107 | COC(=O)c1sc(Br)c(C#N)c1Cl [II.021] | 2.87^[a]

Same assay, conditions: method [a]: LC-UV, acidic range, 0.1% formic acid in water and acetonitrile; listed as 1.0958

Row | LogP | SMILES
108 | 2.28^[a] | O=C(NC1CCOC1=O)c1sc(Br)c(Br)c1F (stereo not drawn) [I.0958]

Same assay, conditions: reversed phase HPLC columns, method [a]: LC-UV, acidic range, 0.1% formic acid in water and acetonitrile

Row | chromatographic logP | SMILES
109 | 3.54 | CCOC(=O)c1sc(Cl)c(Cl)c1C#N [II.053, ethyl 4,5-dichloro-3-cyanothiophene-2-carboxylate]
110 | 3.81 | COC(=O)c1sc(Br)c(Br)c1C(F)F [II.055, methyl 4,5-dibromo-3-(difluoromethyl)thiophene-2-carboxylate]

Same assay, conditions: reversed phase HPLC columns, value in preparation example, method not marked

Row | chromatographic logP | SMILES
111 | 2.25 | NC(=S)CNC(=O)c1sc(Br)c(Br)c1F [I.0896, N-(2-amino-2-sulfanylideneethyl)-4,5-dibromo-3-fluorothiophene-2-carboxamide]
112 | 4.24 | CCOC(=O)C(C)(C)NC(=O)c1sc(Cl)c(Cl)c1Br [I.1062, ethyl N-[(3-bromo-4,5-dichloro-2-thienyl)carbonyl]-2-methylalaninate]
113 | 3.54 | CCOC(=O)c1sc(Cl)c(Cl)c1C#N [II.053, ethyl 4,5-dichloro-3-cyanothiophene-2-carboxylate]
114 | 3.81 | COC(=O)c1sc(Br)c(Br)c1C(F)F [II.055, methyl 4,5-dibromo-3-(difluoromethyl)thiophene-2-carboxylate]
